Test results taken from ChEMBL document CHEMBL1201862, “PubChem BioAssay data set” (2004).
Calls of active or inactive are those of the source.

Key:
[1] = target: T1, Mannose-6-phosphate isomerase (Homo sapiens, UniProt P34949); test: MPI inhibition at elevated mannose 6-phosphate – biochemical, fluorescence intensity, high mannose 6-phosphate, primary screen (AID 1220)
T1 sequence (P34949 whole entry): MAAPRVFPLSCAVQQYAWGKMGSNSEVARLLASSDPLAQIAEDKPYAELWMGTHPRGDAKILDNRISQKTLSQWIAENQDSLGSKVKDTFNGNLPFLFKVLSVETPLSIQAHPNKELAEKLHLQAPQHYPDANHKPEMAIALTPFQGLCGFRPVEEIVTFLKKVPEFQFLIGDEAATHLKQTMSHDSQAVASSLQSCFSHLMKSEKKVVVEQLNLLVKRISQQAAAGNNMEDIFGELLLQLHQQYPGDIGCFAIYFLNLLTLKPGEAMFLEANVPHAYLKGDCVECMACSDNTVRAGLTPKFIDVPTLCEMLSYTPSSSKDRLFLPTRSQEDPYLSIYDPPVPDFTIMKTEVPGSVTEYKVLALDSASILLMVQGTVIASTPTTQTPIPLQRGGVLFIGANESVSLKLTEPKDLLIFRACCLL

[2] = target: T2, DNA repair protein RAD52 homolog (Homo sapiens, UniProt P43351); format: functional, biochemical
T2 sequence (P43351 whole entry): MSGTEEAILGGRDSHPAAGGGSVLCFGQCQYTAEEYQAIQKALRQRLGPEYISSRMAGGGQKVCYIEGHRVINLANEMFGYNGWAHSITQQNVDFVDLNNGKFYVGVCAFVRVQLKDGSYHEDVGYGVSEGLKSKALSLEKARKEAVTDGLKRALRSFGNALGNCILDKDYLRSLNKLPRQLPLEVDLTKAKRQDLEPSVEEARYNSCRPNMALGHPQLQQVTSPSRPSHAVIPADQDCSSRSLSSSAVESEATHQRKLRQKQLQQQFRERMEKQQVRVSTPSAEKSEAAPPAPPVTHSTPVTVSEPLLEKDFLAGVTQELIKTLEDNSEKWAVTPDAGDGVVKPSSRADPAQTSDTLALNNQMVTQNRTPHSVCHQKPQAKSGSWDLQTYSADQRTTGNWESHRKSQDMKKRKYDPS

[3] = HEK-293T viability loss after treatment – luminescence, T-cell screen hits, cytotoxicity control for TCR NF-kB inhibitor project, dose response (AID 489026); format: functional, cell-based;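 further: cells exposed to compound about 14 hours before the viability readout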
[4] = target: T3, High affinity choline transporter 1 (Homo sapiens, UniProt Q9GZV3); test: human choline transporter blockers, potency – cell-based, 5-point CRC, membrane potential dye, dose response (AID 504840); format: functional
T3 sequence (Q9GZV3 whole entry): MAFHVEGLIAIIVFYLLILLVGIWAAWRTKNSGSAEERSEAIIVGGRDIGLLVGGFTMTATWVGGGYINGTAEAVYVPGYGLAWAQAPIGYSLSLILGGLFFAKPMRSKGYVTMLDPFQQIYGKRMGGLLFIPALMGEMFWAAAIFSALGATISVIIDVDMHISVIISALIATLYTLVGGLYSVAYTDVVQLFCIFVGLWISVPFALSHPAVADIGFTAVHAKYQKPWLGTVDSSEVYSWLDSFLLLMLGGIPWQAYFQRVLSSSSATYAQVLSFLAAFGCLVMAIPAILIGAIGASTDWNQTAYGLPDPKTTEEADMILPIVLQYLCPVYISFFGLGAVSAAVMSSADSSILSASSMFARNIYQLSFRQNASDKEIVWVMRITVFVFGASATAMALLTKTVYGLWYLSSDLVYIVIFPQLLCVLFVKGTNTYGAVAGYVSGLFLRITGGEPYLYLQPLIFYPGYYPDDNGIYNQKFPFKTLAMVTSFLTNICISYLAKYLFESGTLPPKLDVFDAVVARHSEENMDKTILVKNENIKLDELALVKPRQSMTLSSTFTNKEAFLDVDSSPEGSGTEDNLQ

[5] = Trypanosoma cruzi growth suppression in host cells – NIH3T3 host cells, beta-gal luminescence, confirmation (AID 2044); format: functional, cell-based;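 further: intracellular parasites grown in NIH/3T3 mouse fibroblasts as host cells; luminescent beta-galactosidase reporter signal from transgenic T. cruzi replicating inside host cells; inhibitors lower the luminescence signal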
[6] = NIH3T3 cell viability loss – ATP luminescence, mouse fibroblasts, counter-screen, dose response (AID 2010); format: functional, cell-based;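 further: cells exposed to compound for about 90 hours before reading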
[7] = target: T4, Corticotropin-releasing factor receptor 2/Corticotropin-releasing factor-binding protein (Homo sapiens, UniProt P24387+Q13324); test: Dose Response confirmation of uHTS hits for small molecule antagonists of the CRF-binding protein and CRF-R2 receptor complex.; format: functional; settings: read-out: IC50_Mean
T4 sequence (Q13324 whole entry): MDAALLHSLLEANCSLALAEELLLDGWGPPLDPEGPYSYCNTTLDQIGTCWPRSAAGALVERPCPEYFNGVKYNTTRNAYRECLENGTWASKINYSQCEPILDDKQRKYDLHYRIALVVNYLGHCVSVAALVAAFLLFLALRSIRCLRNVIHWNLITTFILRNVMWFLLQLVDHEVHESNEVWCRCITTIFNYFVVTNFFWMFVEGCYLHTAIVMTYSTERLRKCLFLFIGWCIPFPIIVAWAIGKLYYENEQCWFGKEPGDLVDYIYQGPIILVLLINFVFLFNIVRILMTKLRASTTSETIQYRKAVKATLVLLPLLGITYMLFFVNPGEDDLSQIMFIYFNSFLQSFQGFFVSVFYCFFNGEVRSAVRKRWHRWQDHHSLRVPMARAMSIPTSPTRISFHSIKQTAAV
T4 sequence (P24387 whole entry): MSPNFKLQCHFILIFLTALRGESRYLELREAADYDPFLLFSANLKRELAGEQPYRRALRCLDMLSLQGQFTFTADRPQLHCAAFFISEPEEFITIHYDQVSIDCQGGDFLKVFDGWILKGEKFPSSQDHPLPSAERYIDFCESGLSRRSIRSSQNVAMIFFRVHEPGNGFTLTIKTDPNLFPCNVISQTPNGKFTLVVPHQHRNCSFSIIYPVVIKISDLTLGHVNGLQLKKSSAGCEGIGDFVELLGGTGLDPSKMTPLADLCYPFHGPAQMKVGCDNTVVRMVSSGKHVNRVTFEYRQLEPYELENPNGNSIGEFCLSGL

[8] = blockers of CRF-binding protein–CRF-R2 complex – cell-based, uHTS hits, 384-well, dose response (AID 651639); format: functional, Homo sapiens; settings: read-out: IC50_Mean
[9] = target: T4, Corticotropin-releasing factor receptor 2/Corticotropin-releasing factor-binding protein; test: activators of CRF receptor 2 with binding protein – uHTS hits, confirmation (AID 602473); format: functional; settings: read-out: EC50_Mean
[10] = target: Eukaryotic translation initiation factor 4E (Mus musculus, UniProt P63073); test: blockers of eIF4G binding by eIF4E – biochemical, TR-FRET, dose response (AID 855); format: functional;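 further: potency for disrupting eIF4E binding to eIF4GI seen as loss of FRET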
[11] = target: DNA dC->dU-editing enzyme APOBEC-3G (Homo sapiens, UniProt Q9HC16); test: Dose Response confirmation of small molecule APOBEC3G DNA Deaminase Inhibitors via a fluorescence-based single-stranded DNA deaminase assay. [Related pubchem assays (depositor defined):AID493012, AID493028]; format: functional
[12] = target: Peroxisome proliferator-activated receptor gamma/Nuclear receptor coactivator 1 (Homo sapiens, UniProt P37231); test: (§1) TR-FRET dose response biochemical High Throughput Screening assay for agonists of the steroid receptor coactivator 1 (SRC-1) recruitment by the peroxisome proliferator-activated receptor gamma (PPAR gamma): non-selective agonists. [Related pubchem assays (depositor defined):AID1300, AID1808, AID504735, AID631]; format: protein assay
[13] = target: Peroxisome proliferator-activated receptor gamma/Nuclear receptor coactivator 3 (Homo sapiens, UniProt P37231); test: as §1, with “3 (SRC-3)” for “1 (SRC-1)”, “assays: 1301 (Confirmation screen.), 1048 (Primary screen.)]” for “assays (depositor defined):AID1300, AID1808, AID504735, AID631]”; format: functional
[14] = target: Peroxisome proliferator-activated receptor gamma/Nuclear receptor coactivator 2 (Homo sapiens, UniProt P37231); test: TR-FRET dose response biochemical High Throughput Screening assay for agonists of the steroid receptor coactivator 2 (SRC-2) recruitment by the peroxisome proliferator-activated receptor gamma (PPAR gamma): non-selective agonists. [Related pubchem assays: 1297, 1032 ]; format: functional
[15] = target: G-protein coupled receptor 55 (Homo sapiens, UniProt Q9Y2T6); test: selective activators of receptor GPR55 – imaging, U2OS cells, beta-arrestin-GFP redistribution, primary screen (AID 1961); format: functional
[16] = viability of uninfected HEp-2 cells – cell-based, HTS, cytotoxicity control for RSV inhibitor project, dose response (AID 2410); format: functional; settings: human respiratory syncytial virus
[17] = cells
[18] = target: Prothrombin (Homo sapiens, UniProt P00734); test: Thrombin 1536 HTS Dose Response Confirmation. [Related pubchem assays: 1046 (Thrombin 1536 HTS; hits were confirmed in this assay)]; format: functional
[19] = target: Cytochrome P450 2D6 (Homo sapiens, UniProt P10635);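 further: CYP2D6 member of a cytochrome P450 panel assay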
[20] = blockers of HIV-1 envelope-mediated cell-cell fusion – cherry-pick, dose response (AID 652057); format: functional, cell-based
[21] = HIV-1 AD8 envelope cell-cell fusion blockers – cherry-pick, dose response (AID 652062); format: functional, cell-based;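 further: luciferase signal from cell-cell fusion driven by HIV-1 clade B AD8 Env; potency is for inhibitors of fusion seen as a drop in luminescence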
[22] = blockers of HIV-1 ZM109 envelope-driven cell-cell fusion – HeLa effector, CEM target cells, luciferase, cherry-pick, dose response (AID 652058); format: functional, cell-based;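 further: luciferase signal from HIV-1 Env mediated cell-cell fusion of effector and target cells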
[23] = off-target signal loss in HeLa-CEM21 co-culture – HeLa F-luc CTL cells, cherry-picked, counter-screen for HIV-1 Env fusion inhibitor project, dose response (AID 652040); format: functional, cell-based;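 further: potency for signal decrease marking cytotoxic or nonspecific inhibition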

Sequence of Eukaryotic translation initiation factor 4E (P63073 whole entry): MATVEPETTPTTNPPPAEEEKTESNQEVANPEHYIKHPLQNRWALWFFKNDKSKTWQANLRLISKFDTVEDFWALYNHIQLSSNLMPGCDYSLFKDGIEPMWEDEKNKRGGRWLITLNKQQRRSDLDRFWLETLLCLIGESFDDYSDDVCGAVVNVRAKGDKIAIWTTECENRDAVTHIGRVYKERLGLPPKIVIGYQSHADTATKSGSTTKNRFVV
Sequence of Peroxisome proliferator-activated receptor gamma/Nuclear receptor coactivator 3 (P37231 whole entry): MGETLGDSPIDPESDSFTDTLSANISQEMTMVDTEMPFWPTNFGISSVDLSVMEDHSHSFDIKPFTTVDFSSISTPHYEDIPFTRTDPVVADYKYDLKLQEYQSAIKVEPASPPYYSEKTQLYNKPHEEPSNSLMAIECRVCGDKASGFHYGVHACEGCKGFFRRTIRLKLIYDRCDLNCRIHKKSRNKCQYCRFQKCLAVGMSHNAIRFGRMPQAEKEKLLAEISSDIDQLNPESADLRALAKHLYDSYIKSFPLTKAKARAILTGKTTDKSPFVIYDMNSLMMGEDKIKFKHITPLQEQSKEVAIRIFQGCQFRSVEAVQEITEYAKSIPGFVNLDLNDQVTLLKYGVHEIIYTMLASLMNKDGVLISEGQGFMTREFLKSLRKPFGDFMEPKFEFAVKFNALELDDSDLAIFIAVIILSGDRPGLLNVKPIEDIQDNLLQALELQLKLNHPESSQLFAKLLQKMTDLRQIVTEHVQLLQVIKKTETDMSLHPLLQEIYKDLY
Sequence of Peroxisome proliferator-activated receptor gamma/Nuclear receptor coactivator 3 (Q9Y6Q9 whole entry, further chain): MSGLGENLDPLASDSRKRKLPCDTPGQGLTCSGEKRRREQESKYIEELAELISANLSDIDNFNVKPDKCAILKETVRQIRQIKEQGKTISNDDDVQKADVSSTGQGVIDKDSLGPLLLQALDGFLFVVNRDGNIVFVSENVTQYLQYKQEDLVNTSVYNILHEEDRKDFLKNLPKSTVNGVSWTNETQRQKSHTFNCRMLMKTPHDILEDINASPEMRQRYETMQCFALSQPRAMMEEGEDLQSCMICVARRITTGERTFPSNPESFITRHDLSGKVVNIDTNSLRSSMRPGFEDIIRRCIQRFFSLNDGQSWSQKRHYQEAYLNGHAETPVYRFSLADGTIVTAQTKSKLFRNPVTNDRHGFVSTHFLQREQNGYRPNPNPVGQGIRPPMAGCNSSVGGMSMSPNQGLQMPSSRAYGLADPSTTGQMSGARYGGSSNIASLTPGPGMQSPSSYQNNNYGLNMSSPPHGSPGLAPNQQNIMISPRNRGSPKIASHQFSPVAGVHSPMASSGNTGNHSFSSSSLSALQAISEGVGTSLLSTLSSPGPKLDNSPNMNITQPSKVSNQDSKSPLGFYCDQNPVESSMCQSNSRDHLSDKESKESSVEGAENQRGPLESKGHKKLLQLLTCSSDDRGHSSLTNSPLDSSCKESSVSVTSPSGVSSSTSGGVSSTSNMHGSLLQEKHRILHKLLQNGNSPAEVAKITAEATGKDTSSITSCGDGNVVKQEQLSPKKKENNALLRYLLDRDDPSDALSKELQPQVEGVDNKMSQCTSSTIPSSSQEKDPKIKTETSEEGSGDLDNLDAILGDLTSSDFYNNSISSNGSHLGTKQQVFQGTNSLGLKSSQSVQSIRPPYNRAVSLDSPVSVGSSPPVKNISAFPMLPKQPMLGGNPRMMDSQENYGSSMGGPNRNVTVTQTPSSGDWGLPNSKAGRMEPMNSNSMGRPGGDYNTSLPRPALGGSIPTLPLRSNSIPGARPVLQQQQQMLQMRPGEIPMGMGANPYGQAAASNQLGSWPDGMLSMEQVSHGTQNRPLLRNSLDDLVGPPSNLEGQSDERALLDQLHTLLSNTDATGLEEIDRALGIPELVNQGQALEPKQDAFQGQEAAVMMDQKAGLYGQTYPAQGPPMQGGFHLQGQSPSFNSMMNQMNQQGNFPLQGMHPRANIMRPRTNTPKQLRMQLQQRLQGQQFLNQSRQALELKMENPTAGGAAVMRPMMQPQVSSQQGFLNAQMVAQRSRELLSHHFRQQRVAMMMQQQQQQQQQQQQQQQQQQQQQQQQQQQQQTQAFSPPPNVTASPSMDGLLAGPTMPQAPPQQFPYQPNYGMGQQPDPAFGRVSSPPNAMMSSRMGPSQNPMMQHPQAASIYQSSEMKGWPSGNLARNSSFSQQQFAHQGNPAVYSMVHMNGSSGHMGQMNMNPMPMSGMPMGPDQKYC
Sequence of Peroxisome proliferator-activated receptor gamma/Nuclear receptor coactivator 2 (P37231 whole entry): as the sequence (P37231 whole entry) above
Sequence of Peroxisome proliferator-activated receptor gamma/Nuclear receptor coactivator 2 (Q15596 whole entry, further chain): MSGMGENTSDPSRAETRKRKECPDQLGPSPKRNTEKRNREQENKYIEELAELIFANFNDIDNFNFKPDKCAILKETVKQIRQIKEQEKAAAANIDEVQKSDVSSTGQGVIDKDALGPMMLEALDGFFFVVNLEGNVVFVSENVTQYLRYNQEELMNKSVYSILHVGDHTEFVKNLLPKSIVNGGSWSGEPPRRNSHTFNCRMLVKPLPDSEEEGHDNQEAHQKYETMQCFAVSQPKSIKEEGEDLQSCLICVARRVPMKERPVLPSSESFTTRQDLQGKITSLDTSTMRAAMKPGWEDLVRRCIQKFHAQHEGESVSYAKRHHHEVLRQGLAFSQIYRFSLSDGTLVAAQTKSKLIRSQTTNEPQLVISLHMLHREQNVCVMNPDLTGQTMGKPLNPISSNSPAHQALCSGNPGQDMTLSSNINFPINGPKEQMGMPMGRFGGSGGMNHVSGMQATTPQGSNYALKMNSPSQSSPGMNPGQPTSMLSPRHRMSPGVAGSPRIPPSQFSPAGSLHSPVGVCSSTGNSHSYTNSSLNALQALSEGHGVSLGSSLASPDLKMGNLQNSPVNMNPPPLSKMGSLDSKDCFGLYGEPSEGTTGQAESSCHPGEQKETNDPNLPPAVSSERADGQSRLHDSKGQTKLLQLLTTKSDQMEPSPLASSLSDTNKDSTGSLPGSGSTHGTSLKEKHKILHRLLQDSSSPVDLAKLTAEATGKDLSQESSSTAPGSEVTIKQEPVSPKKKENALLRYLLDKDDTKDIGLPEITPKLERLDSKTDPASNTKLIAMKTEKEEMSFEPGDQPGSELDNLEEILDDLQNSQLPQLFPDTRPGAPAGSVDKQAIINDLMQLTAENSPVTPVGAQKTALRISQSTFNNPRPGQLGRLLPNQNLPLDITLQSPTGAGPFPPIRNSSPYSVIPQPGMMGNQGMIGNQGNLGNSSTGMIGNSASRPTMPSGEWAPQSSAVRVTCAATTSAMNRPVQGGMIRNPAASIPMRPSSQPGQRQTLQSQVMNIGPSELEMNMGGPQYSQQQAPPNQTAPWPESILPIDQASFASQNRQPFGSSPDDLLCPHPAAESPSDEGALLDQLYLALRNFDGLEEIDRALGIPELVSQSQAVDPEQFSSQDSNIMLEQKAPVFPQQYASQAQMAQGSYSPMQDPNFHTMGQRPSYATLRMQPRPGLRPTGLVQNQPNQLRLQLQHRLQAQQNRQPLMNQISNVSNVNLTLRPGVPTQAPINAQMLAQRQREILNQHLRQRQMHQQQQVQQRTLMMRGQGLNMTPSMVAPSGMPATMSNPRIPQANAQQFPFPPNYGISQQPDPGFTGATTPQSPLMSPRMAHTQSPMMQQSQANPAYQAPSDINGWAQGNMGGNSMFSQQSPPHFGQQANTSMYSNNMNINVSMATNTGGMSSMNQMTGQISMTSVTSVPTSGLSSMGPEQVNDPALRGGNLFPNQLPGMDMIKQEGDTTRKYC
Sequence of DNA dC->dU-editing enzyme APOBEC-3G (Q9HC16 whole entry): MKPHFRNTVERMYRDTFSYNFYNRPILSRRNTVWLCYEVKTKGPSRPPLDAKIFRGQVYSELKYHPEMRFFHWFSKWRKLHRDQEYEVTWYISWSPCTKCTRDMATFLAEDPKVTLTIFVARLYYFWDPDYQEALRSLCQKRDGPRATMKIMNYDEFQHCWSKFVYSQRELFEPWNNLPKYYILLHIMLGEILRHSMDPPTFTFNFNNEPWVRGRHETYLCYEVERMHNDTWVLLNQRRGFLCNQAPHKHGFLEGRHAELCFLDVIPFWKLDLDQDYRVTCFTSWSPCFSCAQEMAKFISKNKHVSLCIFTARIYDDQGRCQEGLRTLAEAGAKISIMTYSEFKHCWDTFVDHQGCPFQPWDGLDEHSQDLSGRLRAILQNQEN
Sequence of Cytochrome P450 2D6 (P10635 whole entry, the tested form may be a part): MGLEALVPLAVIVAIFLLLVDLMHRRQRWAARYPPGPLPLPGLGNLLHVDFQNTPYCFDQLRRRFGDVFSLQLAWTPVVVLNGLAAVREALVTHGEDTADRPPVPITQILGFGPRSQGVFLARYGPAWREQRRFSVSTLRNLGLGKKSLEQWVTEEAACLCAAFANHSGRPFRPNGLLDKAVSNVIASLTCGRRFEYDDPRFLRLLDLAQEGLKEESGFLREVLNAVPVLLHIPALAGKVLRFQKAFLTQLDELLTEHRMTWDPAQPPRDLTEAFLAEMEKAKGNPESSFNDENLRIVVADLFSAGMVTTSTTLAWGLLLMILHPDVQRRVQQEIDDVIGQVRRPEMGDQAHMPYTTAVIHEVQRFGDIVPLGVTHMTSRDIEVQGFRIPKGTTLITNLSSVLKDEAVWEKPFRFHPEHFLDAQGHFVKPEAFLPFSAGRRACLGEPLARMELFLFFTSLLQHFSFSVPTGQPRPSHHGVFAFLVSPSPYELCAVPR

CCN(CC)C(=S)SC1=CCS(=O)(=O)C1
IC50 [1]: 24.5 µM (active)

Cc1ccc2nc(NC(=N)N)nc(C)c2c1
AC50 [2]: 12.6 µM (active)

CCOC(=O)c1[nH]c(C)c(C(=O)Nc2ccccc2C)c1C
IC50 [3]: > 80 µM (inactive)

CSc1ccc(S(=O)(=O)N2CCC(C(=O)N3CCc4ccccc4C3)CC2)cc1
IC50 [4]: 17.4 µM (active)

O=C(Nc1nc2ccc(S(=O)(=O)N3CCCC3)cc2s1)c1ccccn1
EC50 [5]: 2.15 µM (active)
EC50 [6]: 5.13 µM (active)
IC50 [7]: 28.6 µM (active)
IC50 [8]: > 20 µM (inactive)
EC50 [9]: > 53 µM (inactive)

COc1ccc2c(c1)OC(O)(C(F)(F)C(F)F)CC2=O (centres undefined)
IC50 [4]: 13.2 µM (active)
EC50 [9]: 15.6 µM (active)

CCN(CC)S(=O)(=O)c1cc(F)ccc1OC
IC50 [10]: > 64 µM (inactive)

CCc1ccc(-n2c(C)nnc2S)cc1
IC50 [11]: 14.6 µM (active)

COC(=O)c1ccccc1NC(=O)COC(=O)c1ccc(C)c(NC(=O)c2ccco2)c1
IC50 [10]: > 64 µM (inactive)

COCCNc1nc2c(S(=O)(=O)c3cc(C)ccc3C)nnn2c2ccccc12
IC50 [7]: 39 µM (active)
IC50 [8]: 10.6 µM (active)
EC50 [9]: > 53 µM (inactive)

CCOC(=O)C1CCN(C(=O)CSc2cc(=O)n(CC)c3ccccc23)CC1
EC50 [12]: > 79.4 µM (inactive)
EC50 [13]: > 79.4 µM (not active)
EC50 [14]: > 79.4 µM (not active)

CCOC(=O)c1sc2cc([N+](=O)[O-])cc(SCC(C)C)c2c1N
EC50 [15]: 523 nM (active)

COc1ccc(/C=C/C(=O)NCc2cn(C)nc2C)cc1COc1ccc(Cl)cc1Br
IC50 [7]: 6.89 µM (active)
IC50 [8]: > 20 µM (inactive)
EC50 [9]: > 53 µM (inactive)

N#Cc1c2ccc(OCC(N)=O)cc2n2ccccc12
IC50 [1]: > 50 µM (not active)

CCn1c(SCc2c(Cl)cccc2Cl)nnc1-c1nn(-c2ccccc2)ccc1=O
CC50 [16]: 49.8 µM (active)
IC50 [17]: 33.7 µM (active)

CC(=O)Oc1cc(OC(C)=O)c2c(C)cc(=O)oc2c1
IC50 [17]: 25.3 µM (active)

CC(C)(C)C1=Nn2c(nnc2-c2n[nH]c3c2CCC3)SC1
IC50 [11]: 23.3 µM (active)
IC50 [1]: > 50 µM (not active)

CCOC(=O)c1ccccc1Oc1c(F)c(F)nc(NCCO)c1F
IC50 [4]: 14.5 µM (active)
IC50 [18]: > 50 µM (not active)
AC50 [19]: 20 µM (inconclusive)

COc1cc(C(C(=O)NC2CCCCC2)N(C(=O)c2snc(C(N)=O)c2N)c2ccc(C)cc2)ccc1O (centres undefined)
CC50 [16]: > 50 µM (active)
IC50 [17]: 47 µM (active)

O=C(O)Cc1sc(-c2ccccc2)nc1-c1cccs1
EC50 [12]: 94.8 µM (inactive)
EC50 [13]: > 79.4 µM (not active)
EC50 [14]: 26 µM (not active)

CN(CC(=O)NCCc1ccc(S(N)(=O)=O)cc1)CC(=O)Nc1ccc(Cl)c(C(F)(F)F)c1
AC50 [20]: 5.63 µM (active)
AC50 [21]: 11.9 µM (active)
AC50 [22]: 2.95 µM (active)
AC50 [23]: 7.96 µM (active)

COc1ccc(OC(=O)N(C)C[C@@H]2OCc3ccccc3-c3c(n(C)c4ccccc34)C(=O)N([C@H](C)CO)C[C@@H]2C)cc1
AC50 [20]: 1.62 µM (active)
AC50 [21]: 3.25 µM (active)
AC50 [22]: 1.44 µM (active)
AC50 [23]: 2.43 µM (active)

N=C(N)Nc1ccc(/C=C2\C=Cc3ccccc32)cc1
AC50 [2]: 13.2 µM (active)

CC1=C(c2ccccc2)C(O)(c2ccccc2)C(C)C1=O (centres undefined)
IC50 [7]: 13.9 µM (active)
IC50 [8]: 8.13 µM (active)
EC50 [9]: > 53 µM (inactive)

COc1ccc(S(=O)(=O)Nc2ccc3c(c2)CC(=O)N([C@@H](C)CO)C[C@H](C)[C@H](CN(C)S(=O)(=O)c2ccccc2)O3)cc1
AC50 [20]: 2.12 µM (active)
AC50 [21]: 11.6 µM (active)
AC50 [22]: 1.82 µM (active)

COc1ccc(C2=Nn3c(nnc3-c3ccccc3OC)SC2)cc1OC1CCCC1
IC50 [3]: 35.9 µM (inactive)
